Columns and labels:
[1] = test system: ovariectomized female Wistar rats; test: Object recognition task, in vivo model for dementia due to menopause; design: species or system rat; settings: ~12 months after surgery, dosed 60 min prior to trial-1, FIG. 1
Method: Bilateral ovariectomy surgery was carried out in 7-8 weeks old female rats. Briefly, animals were anesthetized using Avertin (2,2,2-tri bromo ethanol) at 150 mg/kg, i.p. and were lay down on the surgery table. A midline incision was given on the dorsal region below the rib cage and 1 cm lateral to the either side of midline, a small incision was given on fascia to locate the adipose fat supporting the ovaries. By slowly pulling out the fat tissue, the ovary was identified and excised following the uterine horn ligation with silk sutures. Fascia was also covered with sutures and the similar procedure was repeated on the other side. Superficial skin layers were sutured and gentamicin (15 mg/kg, s.c.) was given as antibiotic and meloxicam (1 mg/kg, i.m.) as analgesic with povidone iodine applied on superficial skin layers at last. Episodic memory which is a memory of autobiographical events contextual in relation to time, place etc. was assessed ˜12 months after the surgery using object recognition task. On experiment day 1, rats were transferred to experimental room for acclimatization. On experiment day 2, all groups of animals were habituated to their respective test arenas for a period of 30 min prior to trial-1. […] Discriminative index (b−a3/b+a3) was calculated and compared among the groups.

Male Wistar rats [2] = test: Object recognition task (NORT), MK-801 induced cognitive impairment; settings: 0.3 and 1 mg/kg, p.o., FIG. 3
Method: During the familiarization phase, (T1), the rats were placed individually in the arena for 3 minutes, in which two identical objects (a1 and a2) were positioned 10 cm from the wall. Ninety minutes after T1, choice phase was performed. Rats were placed in the same arena as they were placed in T1 trial. During the choice phase (T2) rats were allowed to explore the arena for 3 minutes in presence of a copy of familiar object (a3) and one novel object (b).

Male Wistar rats [3] = test: Dominant Submissive Model (DSM) for depression; type: in vivo, rat; settings: 3 mg/kg, p.o., submissive rats treated, significance in 5th week (p<0.05), FIG. 4
Method: A total of 220 male Wistar rats (110 pairs) of ˜150-200 g weight were selected. The animals were randomized on the basis of body weight and matched for body weight, pair wise. The pairs were habituated to the testing apparatus and milk for a period of 5 min per day for 5 days (first week). The animals were housed such that these pairs met only during the trial time. Each pair was given equal access to milk containing 9% sucrose in a beaker (10 mL), which was placed in an opening on the floor at the midpoint of the tunnel. During the second week, time spent in drinking the milk by a pair of rats was recorded and scored for a period of 5 min. Once the 5 min period was over, the rat pair was returned to their respective home cages.
Pairs, which met the above criteria were selected and randomized based on the dominance levels. Both the dominant and submissive animals of the control group were treated with vehicle (sterile water, 4 mL/kg, p.o.). […] During the test period (three weeks), time spent in drinking the milk was recorded for each animal of a pair for a period of 5 min. […] Dominance level (the average of difference in daily drinking score between the dominant and submissive partners during the testing period) was analyzed using repeated measure one way ANOVA followed by Tukey's test against its dominance level during 2nd week (FIG. 4).

serotonin = test: In vivo brain microdialysis, serotonin modulation in ventral hippocampus; settings: Compound-1 3 mg/kg, p.o. alone, rat ventral hippocampus
Excerpt: Incorrect probe placement was considered as criteria to reject the data from animal.

Compound: COCCCN1CCC(c2nnc(-c3nn(C(C)C)c4ccccc34)o2)CC1.O=C(O)C(=O)O [Compound-1, Isopropyl-3-{5-[1-(3-methoxypropyl)piperidin-4-yl]-[1,3,4]oxadiazol-2-yl}-1H-indazole oxalate]
- object recognition memory deficits [1]: reversed
- MK-801 induced memory deficit (Male Wistar rats [2]): reversed
- dominance levels (Male Wistar rats [3]): decreased
- increase in hippocampal serotonin levels above pre-dose levels (serotonin): 22%
